Test results as given in patent US20260256792A1, “TREATMENT OF CHRONIC SPONTANEOUS URTICARIA BY ADMINISTERING (R)-2-[3-[4-AMINO-3-(2-FLUORO-4-PHENOXY-PHENYL)PYRAZOLO[3,4-D]PYRIMIDIN-1-YL]PIPERIDINE-1-CARBONYL]-4-METHYL-4-[4-(OXETAN-3-YL)PIPERAZIN-1-YL]PENT-2-ENENITRILE” (priority 2023, published 2026).

System: moderate-to-severe chronic spontaneous urticaria (CSU)
Experiment: Phase 2 CSU study: hives severity score over 7 days (HSS7)
Assay type: in vivo, human
Design: key to HSS7 Change from baseline, Median / HSS7, Median / HSS7, Max / HSS7 Change from baseline, Q1 / HSS7 Change from baseline, Q3 / HSS7 Change from baseline, Max: 7-day sum of daily hive scores, each 0 = none to 3 = >50 hives
Text: The study comprises a 12 week, randomized, double-blind, placebo-controlled, multi-center, dose-ranging efficacy and safety phase, followed by a 40 week open label extension (OLE) phase (see FIG. 1).
The study consists of three phases and an optional OLE phase.
The UAS is a validated PRO measure. The daily UAS is the sum of the daily Hive Severity Score (HSS, ranging from 0=None to 3=more than 50 hives) and the daily Itch Severity Score (ISS, ranging from 0=None to 3=intense), the 2 key urticaria signs and symptoms which are wheals and itch. The daily UAS scores range from 0 to 6 point/day. Daily UAS scores are summed over 7-day period to create the UAS7, ranging from 0 to 42, and are composed of the HSS7 and ISS7 components. […] Patients were to complete the UAS using the e-diary. The e-diary was to be used once daily on the same time of each day recording of participant's answers to the urticaria activity score over 7 days (UAS7) questionnaire. For participants who entered the OLE phase, their answers to the UAS7 questionnaire were also to be collected from Week 20 to Week24 and from Week 48 to Week 52.
The following secondary endpoints were to be analyzed using the same approach as for the primary endpoint: • Change from baseline in UAS7 at Week 4 • Change from baseline in UAS7 at Week 12 (for US and US reference countries) • Change from baseline in ISS7 at Week 12 (except US and US reference countries) • Change from baseline in HSS7 at Week 12

[1] = Week 7, 400 mg BID, Omalizumab-Naïve Population
[2] = Week 7, 400 mg BID, Patients with Prior Omalizumab Use
[3] = Week 7, 400 mg QPM, Omalizumab-Naïve Population
[4] = Week 7, 400 mg QPM, Patients with Prior Omalizumab Use
[5] = Week 7, 400 mg TID, Omalizumab-Naïve Population
[6] = Week 7, 400 mg TID, Patients with Prior Omalizumab Use
[7] = Week 8, 400 mg BID, Omalizumab-Naïve Population
[8] = Week 8, 400 mg BID, Patients with Prior Omalizumab Use
[9] = Week 8, 400 mg QPM, Omalizumab-Naïve Population
[10] = Week 8, 400 mg QPM, Patients with Prior Omalizumab Use
[11] = Week 8, 400 mg TID, Omalizumab-Naïve Population
[12] = Week 8, 400 mg TID, Patients with Prior Omalizumab Use
[13] = Week 9, 400 mg BID, Omalizumab-Naïve Population
[14] = Week 9, 400 mg BID, Patients with Prior Omalizumab Use
[15] = Week 9, 400 mg QPM, Omalizumab-Naïve Population
[16] = Week 9, 400 mg QPM, Patients with Prior Omalizumab Use
[17] = Week 9, 400 mg TID, Omalizumab-Naïve Population
[18] = Week 9, 400 mg TID, Patients with Prior Omalizumab Use

## CC(C)(C=C(C#N)C(=O)N1CCC[C@@H](n2nc(-c3ccc(Oc4ccccc4)cc3F)c3c(N)ncnc32)C1)N1CCN(C2COC2)CC1 [rilzabrutinib, (R)-2-[3-[4-amino-3-(2-fluoro-4-phenoxy-phenyl)pyrazolo[3,4-d]pyrimidin-1-yl]piperidine-1-carbonyl]-4-methyl-4-[4-(oxetan-3-yl)piperazin-1-yl]pent-2-enenitrile]
[1]
  HSS7, Mean (SD): 7.34 (6.12)
  HSS7, Median: 7.00
  HSS7 Change from baseline, Mean (SD): −6.75 (5.85)
  HSS7 Change from baseline, Median: −7.00
  HSS7 Percent change from baseline, Mean (SD): −48.07 (38.31) %
  HSS7 Percent change from baseline, Median: −50.00%
[2]
  HSS7, Mean (SD): 4.80 (7.46)
  HSS7, Median: 0.00
  HSS7 Change from baseline, Mean (SD): −10.00 (9.67)
  HSS7 Change from baseline, Median: −12.00
  HSS7 Percent change from baseline, Median: −100.00%
[3]
  HSS7, Mean (SD): 10.43 (5.27)
  HSS7, Median: 8.40
  HSS7 Change from baseline, Mean (SD): −4.82 (5.35)
  HSS7 Change from baseline, Median: −4.00
  HSS7 Percent change from baseline, Mean (SD): −29.76 (31.10) %
  HSS7 Percent change from baseline, Median: −35.71%
[4]
  HSS7, Mean (SD): 9.00 (NC)
  HSS7, Median: 9.00
  HSS7 Change from baseline, Mean (SD): −11.00 (NC)
  HSS7 Change from baseline, Median: −11.00
  HSS7 Percent change from baseline, Mean (SD): −55.00 (NC) %
  HSS7 Percent change from baseline, Median: −55.00%
[5]
  HSS7, Mean (SD): 6.40 (4.54)
  HSS7, Median: 5.92
  HSS7 Change from baseline, Mean (SD): −7.60 (5.60)
  HSS7 Change from baseline, Median: −6.58
  HSS7 Percent change from baseline, Mean (SD): −52.36 (32.23) %
  HSS7 Percent change from baseline, Median: −50.69%
[6]
  HSS7, Mean (SD): 5.11 (4.08)
  HSS7, Median: 4.33
  HSS7 Change from baseline, Mean (SD): −10.92 (7.20)
  HSS7 Change from baseline, Median: −9.50
  HSS7 Percent change from baseline, Mean (SD): −63.38 (24.01) %
  HSS7 Percent change from baseline, Median: −54.41%
[7]
  HSS7, Mean (SD): 6.66 (6.70)
  HSS7, Median: 5.00
  HSS7 Change from baseline, Mean (SD): −7.49 (6.10)
  HSS7 Change from baseline, Median: −7.00
  HSS7 Percent change from baseline, Mean (SD): −54.71 (40.69) %
  HSS7 Percent change from baseline, Median: −74.07%
[8]
  HSS7, Mean (SD): 4.80 (7.46)
  HSS7, Median: 0.00
  HSS7 Change from baseline, Mean (SD): −10.00 (9.67)
  HSS7 Change from baseline, Median: −12.00
  HSS7 Percent change from baseline, Median: −100.00%
[9]
  HSS7, Median: 9.00
  HSS7 Change from baseline, Mean (SD): −4.56 (5.35)
  HSS7 Change from baseline, Median: −4.00
  HSS7 Percent change from baseline, Mean (SD): −29.79 (35.34) %
  HSS7 Percent change from baseline, Median: −28.57%
[10]
  HSS7, Mean (SD): 9.00 (NC)
  HSS7, Median: 9.00
  HSS7 Change from baseline, Mean (SD): −11.00 (NC)
  HSS7 Change from baseline, Median: −11.00
  HSS7 Percent change from baseline, Mean (SD): −55.00 (NC) %
  HSS7 Percent change from baseline, Median: −55.00%
[11]
  HSS7, Mean (SD): 6.12 (4.80)
  HSS7, Median: 6.00
  HSS7 Change from baseline, Mean (SD): −7.88 (5.18)
  HSS7 Change from baseline, Median: −7.50
  HSS7 Percent change from baseline, Mean (SD): −56.04 (32.39) %
  HSS7 Percent change from baseline, Median: −56.35%
[12]
  HSS7, Mean (SD): 3.17 (4.45)
  HSS7, Median: 1.50
  HSS7 Change from baseline, Mean (SD): −12.86 (6.28)
  HSS7 Percent change from baseline, Mean (SD): −80.91 (20.45) %
  HSS7 Percent change from baseline, Median: −86.73%
[13]
  HSS7, Mean (SD): 7.01 (7.58)
  HSS7, Median: 3.50
  HSS7 Change from baseline, Mean (SD): −6.95 (6.00)
  HSS7 Change from baseline, Median: 7.00
  HSS7 Percent change from baseline, Mean (SD): −53.79 (43.28) %
  HSS7 Percent change from baseline, Median: −68.18%
[14]
  HSS7, Mean (SD): 4.80 (7.46)
  HSS7, Median: 0.00
  HSS7 Change from baseline, Mean (SD): −10.00 (9.67)
  HSS7 Change from baseline, Median: −12.00
  HSS7 Percent change from baseline, Median: −100.00%
[15]
  HSS7, Mean (SD): 9.82 (5.59)
  HSS7, Median: 9.20
  HSS7 Change from baseline, Mean (SD): −5.33 (5.35)
  HSS7 Change from baseline, Median: 4.92
  HSS7 Percent change from baseline, Mean (SD): −34.46 (32.68) %
  HSS7 Percent change from baseline, Median: −33.59%
[16]
  HSS7, Mean (SD): 8.00 (NC)
  HSS7, Median: 8.00
  HSS7 Change from baseline, Mean (SD): −12.00 (NC)
  HSS7 Change from baseline, Median: −12.00
  HSS7 Percent change from baseline, Mean (SD): −60.00 (NC) %
  HSS7 Percent change from baseline, Median: −60.00%
[17]
  HSS7, Mean (SD): 5.88 (4.98)
  HSS7, Median: 6.00
  HSS7 Change from baseline, Mean (SD): −8.19 (5.87)
  HSS7 Change from baseline, Median: −8.00
  HSS7 Percent change from baseline, Mean (SD): −55.85 (38.63) %
  HSS7 Percent change from baseline, Median: −57.14%
[18]
  HSS7, Mean (SD): 3.25 (4.37)
  HSS7, Median: 2.00
  HSS7 Change from baseline, Mean (SD): −12.78 (6.34)
  HSS7 Change from baseline, Median: −12.00
  HSS7 Percent change from baseline, Mean (SD): −80.12 (19.92) %
  HSS7 Percent change from baseline, Median: −86.97%
Week 10, 400 mg BID, Omalizumab-Naïve Population
  HSS7, Mean (SD): 7.05 (7.27)
